Measured values reported in publication PMC8617031, “Development of a BCL-xL and BCL-2 dual degrader with improved anti-leukemic activity,” (Nature Communications, 2021).
Where “and” joins values, the source holds several entries; their conditions need not be identical. Equal entries are not always repeated.

Columns and labels:
[1] = molecular target: T1, BCL-2/PROTAC/VCB ternary complex (Homo sapiens, UniProt P10415+P40337); assay: AlphaLISA ternary complex formation, cell-free, BCL-2; format: binding; details: for in vitro ternary complex formation with BCL-2 (in words): AlphaLISA, cell-free, Fig. 2d, 3f; for AlphaLISA signal, BCL-2/PROTAC/VCB: Fig. 2d raw Alpha reads
T1 construct: pGEX-6P-1-VHL(54-213) (pDL2200) was constructed through Gibson assembly method; made in house; host or cells: bacterial culture (LB broth, IPTG induction)
T1 sequence (P10415 1-211 limits assumed): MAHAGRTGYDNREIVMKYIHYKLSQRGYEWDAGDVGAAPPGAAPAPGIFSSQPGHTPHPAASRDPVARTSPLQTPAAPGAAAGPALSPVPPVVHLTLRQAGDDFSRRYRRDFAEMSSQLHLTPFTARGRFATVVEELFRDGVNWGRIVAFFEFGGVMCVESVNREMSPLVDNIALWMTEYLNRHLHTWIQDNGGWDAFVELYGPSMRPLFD
T1 sequence (P40337 54-213 limits assumed): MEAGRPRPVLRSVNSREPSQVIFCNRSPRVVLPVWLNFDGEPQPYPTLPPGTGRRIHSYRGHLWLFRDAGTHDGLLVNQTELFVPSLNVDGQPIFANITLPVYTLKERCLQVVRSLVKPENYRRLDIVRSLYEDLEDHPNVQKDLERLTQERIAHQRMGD
T1 sequence (Q15369 17-112 partner limits assumed): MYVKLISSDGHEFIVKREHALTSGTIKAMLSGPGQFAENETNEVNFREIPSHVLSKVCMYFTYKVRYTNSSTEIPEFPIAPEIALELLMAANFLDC
T1 sequence (Q15370 whole entry partner): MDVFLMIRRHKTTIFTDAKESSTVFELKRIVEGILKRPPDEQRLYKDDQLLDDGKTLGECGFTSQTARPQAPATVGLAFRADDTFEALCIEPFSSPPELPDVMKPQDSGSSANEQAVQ
Experimental: (§1) AlphaLISA assay was used to evaluate the in vitro ternary complex formation between target proteins (BCL-xL or BCL-2), PROTAC and E3 ligase (VCB complex). In each well, 5 nM His-tagged BCL-xL or BCL-2 proteins and 5 nM GST-VCB complex was incubated with varying concentrations of compounds in fourfold serial dilutions, to a final volume of 40 µl in a 96-well PCR plate. After incubation at room temperature for 30 min, 5 µl alpha glutathione-donor beads (Cat. No. 6765300, PerkinElmer) were added to each well (20 µg/ml final concentration) and incubated for another 15 min. Thereafter, 5 µL 6× His-acceptor beads were added to each well (20 µg/ml final concentration) and incubated for an additional 45 min at room temperature. Thereafter, 17 µl of each sample was transferred in adjacent wells of a 384-well proxy plate, and the plate was scanned using the Alpha program on Biotek’s Synergy Neo2 multimode plate reader. The data were expressed as average AlphaLISA signal and plotted against different concentrations of compounds using GraphPad Prism 9 software.

[2] = molecular target: T2, BCL-xL/PROTAC/VHL-ELOC-ELOB (VCB) ternary complex (Homo sapiens, UniProt P40337+Q07817); assay: AlphaLISA ternary complex formation, cell-free, BCL-xL; format: binding; details: for in vitro ternary complex formation with BCL-xL (in words): AlphaLISA, cell-free, Fig. 2c, 3e; for AlphaLISA signal, BCL-xL/PROTAC/VCB: Fig. 2c raw Alpha reads
T2 construct: pGEX-6P-1-VHL(54-213) (pDL2200) was constructed through Gibson assembly method; made in house; host or cells: bacterial culture (LB broth, IPTG induction)
T2 sequence (Q07817 1-212 limits assumed): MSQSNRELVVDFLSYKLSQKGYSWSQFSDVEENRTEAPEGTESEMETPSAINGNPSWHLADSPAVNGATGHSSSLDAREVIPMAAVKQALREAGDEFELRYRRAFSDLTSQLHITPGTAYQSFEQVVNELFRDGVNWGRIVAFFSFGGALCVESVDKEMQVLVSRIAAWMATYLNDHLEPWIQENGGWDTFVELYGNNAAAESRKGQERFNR
T2 sequence (P40337 54-213 limits assumed): as the sequence (P40337 54-213 limits assumed) above
T2 sequence (Q15369 17-112 partner limits assumed): as the sequence (Q15369 17-112 partner limits assumed) above
T2 sequence (Q15370 whole entry partner): as the sequence (Q15370 whole entry partner) above
Experimental: as §1

BCL-xL = molecular target: T3, BCL-xL (Homo sapiens, UniProt Q07817); assay: BCL-xL degradation by immunoblot in 293T cells; format: cell-based; details: for DC50: four concentrations, Fig. 2b, read-out: BCL-xL DC50; for Dmax: HEK-293T
T3 construct: endogenous in cells
T3 sequence (Q07817 whole entry): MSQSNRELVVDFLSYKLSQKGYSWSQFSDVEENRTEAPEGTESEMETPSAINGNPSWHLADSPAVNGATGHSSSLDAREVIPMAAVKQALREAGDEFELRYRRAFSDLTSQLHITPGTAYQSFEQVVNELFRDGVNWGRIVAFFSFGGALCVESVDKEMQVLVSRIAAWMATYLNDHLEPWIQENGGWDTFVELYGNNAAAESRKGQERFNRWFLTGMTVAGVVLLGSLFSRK
Experimental: (§2) The DC50 and Dmax were calculated using Prism based on the ImageJ-quantified western blots in Supplementary Fig. 4. c, d AlphaLISA assay to determine the formation of BCL-xL/PROTAC/VHL-ELOC-ELOB (VCB) (c) or BCL-2/PROTAC/VCB (d) ternary complex in a cell-free condition. Data represent the mean of a single experiment with 2 technical replicates. Similar results were obtained in one more independent experiment. e, f NanoBRET assays evaluating intracellular BCL-xL/PROTAC/VCB (e) or BCL-2/PROTAC/VCB (f) ternary complex formation. […] Data are expressed as mean ± s.e.m. of three biological replicates. Source data are provided as a Source data file.
(§3) Representative immunoblots are shown in (a–d) and β-actin was used as a loading control in all immunoblot analyses. The normalized protein content in the immunoblots is presented as mean values ± s.e.m. (n = 3 biologically independent experiments) in the bar graph (bottom panel). e, f The formation of BCL-xL/PROTAC/VCB (e) and BCL-2/PROTAC/VCB (f) ternary complexes in a cell-free condition was determined by AlphaLISA assay. Data represent the mean of a single experiment with 2 technical replicates. […] Source data are provided as a Source data file.
(§4) Cells were collected, washed once with ice-cold phosphate-buffered saline, pH 7.2 (PBS, cat. no. 20012027; Thermo Fisher Scientific) and lysed in RIPA lysis buffer (Cat. No. BP-115DG, Boston Bio Products, Ashland, MA, USA) supplemented with protease and phosphatase inhibitor cocktails (Cat. No. PPC1010, Sigma-Aldrich, St. Louis, MO, USA) through sonication. The samples were centrifuged at 14,000 r.p.m. for 5 min and the supernatants were transferred into a new tube. The protein concentration in the supernatants was determined using the Pierce BCA protein Assay kit (cat. no. 23225, Thermo Fisher Scientific). The protein concentration was normalized, and the samples were reduced in 4× Laemmli’s SDS-sample buffer (cat. no. BP-110R, Boston Bio Products) and denatured at 95 °C for 5 min. An equal amount of protein samples (20–40 μg per lane) were resolved using precast 4–20% Tris-glycine gels (Mini-PROTEAN TGX, cat. no. 456–1094, Bio-Rad), and resolved proteins were transferred onto 0.2-µm pore size polyvinylidene difluoride (PVDF) blotting membranes (cat. no. LC2002, Thermo Fisher Scientific) using mini trans-blot electrophoretic transfer cell (Bio-Rad). The membranes were blocked with non-fat dry milk (5% wt/vol) in 1× Tris-buffered saline-Tween-20 (TBST, cat. no. J77500, Affymetrix) for 1 h at room temperature, and were subsequently probed with primary antibodies at a predetermined optimal concentration in non-fat dry milk (5% wt/vol in TBST) overnight at 4 °C. The membranes were washed three times (5 min each) in TBST and then incubated with horse radish peroxidase (HRP)-conjugated secondary antibodies for 1 h at room temperature. Following sufficient washing with TBST, the membranes were exposed with chemiluminescent HRP substrate (cat. no. WBKLS0500, MilliporeSigma), and the signal was detected using the ChemiDoc MP Imaging System (Bio-Rad) and quantified using the ImageJ (v1.53a) software from NIH.

BCL-2 = molecular target: T4, BCL-2 (Homo sapiens, UniProt P10415); assay: BCL-2 degradation by immunoblot in 293T cells; format: cell-based; details: for Dmax: HEK-293T
T4 construct: endogenous in cells
T4 sequence (P10415 whole entry): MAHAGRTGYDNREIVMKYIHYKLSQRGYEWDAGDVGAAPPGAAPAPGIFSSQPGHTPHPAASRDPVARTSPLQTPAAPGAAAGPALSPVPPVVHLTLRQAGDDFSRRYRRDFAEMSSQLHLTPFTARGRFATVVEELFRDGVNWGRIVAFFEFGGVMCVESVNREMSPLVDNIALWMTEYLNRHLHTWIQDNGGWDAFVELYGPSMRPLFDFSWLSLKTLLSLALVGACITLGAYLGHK
Experimental: as §2, §3, §4

[3] = compound 200000 nM, 2 technical replicates

Which “in vitro ternary complex formation with BCL-2 (in words)” value [1] does the source give for `Cc1ncsc1-c1ccc([C@H](C)NC(=O)[C@@H]2C[C@@H](O)CN2C(=O)[C@@H](NC(=O)CCCC(=O)N2CCN(CC3(C)CCC(c4ccc(Cl)cc4)=C(CN4CCN(c5ccc(C(=O)NS(=O)(=O)c6ccc(N[C@H](CCN7CCOCC7)CSc7ccccc7)c(S(=O)(=O)C(F)(F)F)c6)cc5)CC4)C3)CC2)C(C)(C)C)cc1` (some centres unmarked) [PPC5] here?
The value was “stronger ternary complexes”.

What about the “AlphaLISA signal, BCL-2/PROTAC/VCB” value ([1]; compound 0.191 nM) of the same molecule?
Its value is 15183 and 13115.

And the “AlphaLISA signal, BCL-2/PROTAC/VCB” value ([1]; compound 0.763 nM)?
The value was 15317 and 19455.

And the “AlphaLISA signal, BCL-2/PROTAC/VCB” value ([1]; compound 3.052 nM)?
Its value is 45755 and 47236.

What about the “AlphaLISA signal, BCL-2/PROTAC/VCB” value ([1]; compound 12.207 nM) of the same molecule?
Its value is 410345 and 373015.

What about the “AlphaLISA signal, BCL-2/PROTAC/VCB” value ([1]; compound 48.828 nM) of the same molecule?
The value was 1136924 and 1140765.

And the “AlphaLISA signal, BCL-2/PROTAC/VCB” value ([1]; compound 195.31 nM)?
Its value is 1286256 and 1221888.

What about the “AlphaLISA signal, BCL-2/PROTAC/VCB” value ([1]; compound 781.25 nM) of the same molecule?
Its value is 709163 and 786788.

And the “AlphaLISA signal, BCL-2/PROTAC/VCB” value ([1]; compound 3125 nM)?
The value was 91120 and 92885.

And the “AlphaLISA signal, BCL-2/PROTAC/VCB” value ([1]; compound 12500 nM)?
The value was 18341 and 15512.

And the “in vitro ternary complex formation with BCL-xL (in words)” value [2]?
Its value is “stronger ternary complexes”.

What about the “AlphaLISA signal, BCL-xL/PROTAC/VCB” value ([2]; compound 0.191 nM) of the same molecule?
The value was 14064 and 15339.

What about the “AlphaLISA signal, BCL-xL/PROTAC/VCB” value ([2]; compound 0.763 nM) of the same molecule?
The value was 16647 and 16446.

And the “AlphaLISA signal, BCL-xL/PROTAC/VCB” value ([2]; compound 3.052 nM)?
Its value is 29664 and 30068.

And the “AlphaLISA signal, BCL-xL/PROTAC/VCB” value ([2]; compound 12.207 nM)?
Its value is 308120 and 297735.

And the “AlphaLISA signal, BCL-xL/PROTAC/VCB” value ([2]; compound 48.828 nM)?
The value was 915794 and 868616.

And the “AlphaLISA signal, BCL-xL/PROTAC/VCB” value ([2]; compound 195.31 nM)?
Its value is 760327 and 820012.

What about the “AlphaLISA signal, BCL-xL/PROTAC/VCB” value ([2]; compound 781.25 nM) of the same molecule?
Its value is 680312 and 708753.

And the “AlphaLISA signal, BCL-xL/PROTAC/VCB” value ([2]; compound 3125 nM)?
Its value is 257573 and 298187.

What about the “AlphaLISA signal, BCL-xL/PROTAC/VCB” value ([2]; compound 12500 nM) of the same molecule?
The value was 45345 and 53654.

And the “AlphaLISA signal, BCL-xL/PROTAC/VCB” value ([2]; compound 50000 nM)?
The value was 21182 and 20463.

What about the “BCL-xL degradation (in words)” value (BCL-xL; 293T cells, 16 h) of the same molecule?
The value was “partially degrade BCL-xL”.

And the DC50 (BCL-xL; 293T cells, 16 h)?
Its DC50 is 316 nM.

What about the Dmax (BCL-xL) of the same molecule?
Its Dmax is 56%.

What about the Dmax (BCL-2) of the same molecule?
Its Dmax is 47%.

What does the source list for `Cc1ncsc1-c1ccc([C@H](C)NC(=O)[C@@H]2C[C@@H](O)CN2C(=O)[C@@H](NC(=O)CCCCCCCCC(=O)N2CCN(CC3(C)CCC(c4ccc(Cl)cc4)=C(CN4CCN(c5ccc(C(=O)NS(=O)(=O)c6ccc(N[C@H](CCN7CCOCC7)CSc7ccccc7)c(S(=O)(=O)C(F)(F)F)c6)cc5)CC4)C3)CC2)C(C)(C)C)cc1` (some centres unmarked) [PPC10]?
in vitro ternary complex formation with BCL-2 (in words) [1]: much weaker ternary complexes; AlphaLISA signal, BCL-2/PROTAC/VCB ([1]; compound 0.191 nM): 13116 and 18939; AlphaLISA signal, BCL-2/PROTAC/VCB ([1]; compound 0.763 nM): 20209 and 15528; AlphaLISA signal, BCL-2/PROTAC/VCB ([1]; compound 3.052 nM): 15560 and 16756; AlphaLISA signal, BCL-2/PROTAC/VCB ([1]; compound 12.207 nM): 23256 and 23865; AlphaLISA signal, BCL-2/PROTAC/VCB ([1]; compound 48.828 nM): 69142 and 68261; AlphaLISA signal, BCL-2/PROTAC/VCB ([1]; compound 195.31 nM): 218425 and 202826; AlphaLISA signal, BCL-2/PROTAC/VCB ([1]; compound 781.25 nM): 114837 and 140035; AlphaLISA signal, BCL-2/PROTAC/VCB ([1]; compound 3125 nM): 20525 and 27108; AlphaLISA signal, BCL-2/PROTAC/VCB ([1]; compound 12500 nM): 13932 and 13026; AlphaLISA signal, BCL-2/PROTAC/VCB ([1]; compound 50000 nM): 10041 and 13037; AlphaLISA signal, BCL-2/PROTAC/VCB [1, 3]: 11345 and 10101; in vitro ternary complex formation with BCL-xL (in words) [2]: much weaker ternary complexes; AlphaLISA signal, BCL-xL/PROTAC/VCB ([2]; compound 0.191 nM): 14831 and 16852; AlphaLISA signal, BCL-xL/PROTAC/VCB ([2]; compound 0.763 nM): 20168 and 16739; AlphaLISA signal, BCL-xL/PROTAC/VCB ([2]; compound 3.052 nM): 14541 and 18037; AlphaLISA signal, BCL-xL/PROTAC/VCB ([2]; compound 12.207 nM): 19478 and 16699; AlphaLISA signal, BCL-xL/PROTAC/VCB ([2]; compound 48.828 nM): 33222 and 36251; AlphaLISA signal, BCL-xL/PROTAC/VCB ([2]; compound 195.31 nM): 136427 and 150589; AlphaLISA signal, BCL-xL/PROTAC/VCB ([2]; compound 781.25 nM): 133700 and 133335; AlphaLISA signal, BCL-xL/PROTAC/VCB ([2]; compound 12500 nM): 16869 and 17291; AlphaLISA signal, BCL-xL/PROTAC/VCB ([2]; compound 50000 nM): 11499 and 11443; AlphaLISA signal, BCL-xL/PROTAC/VCB [2, 3]: 9101 and 11295; DC50 (BCL-xL; 293T cells, 16 h): 12.1 nM; Dmax (BCL-xL): 81%; BCL-2 degradation (in words) (BCL-2; 293T cells, 16 h): also degraded BCL-2; DC50 (BCL-2; 293T cells, four concentrations, 16 h, Fig. 2b, read-out: BCL-2 DC50): 355 nM; Dmax (BCL-2): 69%
